# Test results as given in US8399425B2, “Alleviating neuropathic pain with EETs and sEH inhibitors” (The Regents of the University of California, priority 2007, dated 2013).
# Entries after “also recorded” stand apart in the source; their conditions may differ.
# What was measured:
# [1] = tested on: streptozocin induced neuropathic pain; experiment: von Frey test (mechanical allodynia) in streptozocin neuropathic rats; format: in vivo, rat; conditions: for neuropathic pain, von Frey test: streptozocin (50 mg/kg iv) rats, subcutaneous, dose and time response
# Method: Male Sprague-Dawley rats weighing 250-300 grains were used. Animals were individually housed at UC Davis Animal Resource Facility under standard conditions with free access to food and water, and maintained for at least 1 week before the experiments. Pain was quantified using three tests, the hind paw withdrawal latency test, the mechanical hyperalgesia test and the mechanical allodynia test. All the experiments were performed during the daytime.
# Rats were first trained to the experimental chamber in two separate sessions. On the day of the induction of neuropathy, the animals' basal response to all three tests were measured and then streptozocin (50 mg/kg) was administered intravenously. Animals were then followed over time for the development of neuropathic pain. An inhibitor of sEH was administered subcutaneously one week after the onset of pain symptoms. […] Compounds were formulated by dissolving them in ethanol and mixing with trans free oleic oil. At least six animals per group were used. The Von Frey test was conducted by stimulating the plantar surface of the rats' hind paw with a calibrated filament connected to a force transducer. As this filament is applied the amount of force exerted on the paw increases and the animal withdraws its paw when the force reaches its threshold. […] In the Randal-Selitto test a similar principle is used. The animals' hind paw is placed between a flat surface and a pointed tip of a force transducer. The pointed tip exerts force on the dorsal face of the paw. […] The two tests are complementary, but depend on the activity of different groups of nociceptors.
# Treatments and behavioral nociceptive tests. […] Following baseline measurements, rats were first treated with 200 μl of vehicle or compound-formulated cream by topical application to one hindpaw, LPS ([…] in 50 μl 0.9% NaCl) was injected into the plantar surface of the treated paw. For subcutaneous administration, compounds were injected immediately after intraplantar LPS. […] A probe fitted with a filament that is connected to a force transducer was applied to the plantar hind paw surface through a wire-mesh platform until eliciting a withdrawal reflex. The duration of heat application or the force (gr) necessary to elicit a withdrawal was designated as TWL and MWT. The steroidogenesis inhibitors were applied 2 hours before sEHI and LPS administration. Diabetes was induced by intravenous injection of 50 mg/kg streptozocin (STZ) in saline following baseline measurements. Diabetic animals were tested at least one week after STZ administration. Three measurements were taken from each animal at each time point and average responses were converted to percent analgesia index based on each animals' baseline response.
# LPS induced hyperalgesia = experiment: intraplantar LPS inflammatory pain, thermal hindpaw withdrawal latency; format: in vivo, rat; conditions: for inflammatory pain related behavior: LPS inflammation; for analgesic activity of AEPU on co-administration: 10 mg/kg dermal, co-administered with AEPU
# Method: Treatments and behavioral nociceptive tests. Behavioral nociceptive testing was conducted by assessing thermal hindpaw withdrawal latencies (TWL) using a commercial Hargreaves (Hargreaves et. al […]) apparatus (IITC, Woodland Hills, Calif.), or by determining mechanical hindpaw withdrawal thresholds (MWT) using an electronic von Frey anesthesiometer (IITC, Woodland. Hills, Calif.). For […] determination, a maximum stimulus duration of 22 s was imposed to prevent tissue damage. Following baseline measurements, rats were first treated with 200 μl of vehicle or compound-formulated cream by topical application to one hindpaw, LPS ([…] in 50 μl 0.9% NaCl) was injected into the plantar surface of the treated paw. For subcutaneous administration, compounds were injected immediately after intraplantar LPS. Animals were then placed in acrylic chambers on a glass platform maintained at a temperature of 30±1° C. for measurement or on a wire-mesh platform for MWT measurements. A probe fitted with a filament that is connected to a force transducer was applied to the plantar hind paw surface through a wire-mesh platform until eliciting a withdrawal reflex. The duration of heat application or the force (gr) necessary to elicit a withdrawal was designated as TWL and MWT. The steroidogenesis inhibitors were applied 2 hours before sEHI and LPS administration. Diabetes was induced by intravenous injection of 50 mg/kg streptozocin (STZ) in saline following baseline measurements. Diabetic animals were tested at least one week after STZ administration. Three measurements were taken from each animal at each time point and average responses were converted to percent analgesia index based on each animals' baseline response.
# COX-2 mRNA = experiment: spinal COX-2 mRNA after intraplantar LPS; format: in vivo, rat; conditions: spinal cord
# StAR mRNA = StAR mRNA expression in spinal cord and brain (qRT-PCR); format: in vivo, rat; conditions: for StAR expression in spinal cord and brain: intrathecal, alone, within 30 minutes
# Method: Blood samples for chemical analysis were collected by cardiac puncture under deep isoflurane anesthesia. Plasma was immediately separated by centrifuging at 4000 rpm for 10 minutes in a cold centrifuge. Rats were then decapitated under anesthesia and tissues were removed and flash frozen in liquid nitrogen. For sampling the brain after decapitation, the scalp was first removed providing accessibility to the cranial plates. A midline incision was introduced to detach the cranial plates and brain was carefully exposed by peeling the plates. The brain was removed from the skull using a spatula, immediately placed in liquid nitrogen, and stored at −80° C. The prefrontal area was removed by a coronal cut to the distal one third of the brain from the frozen tissue. The cerebellum was also removed and the brain was hemisected. […] Plasma hormone levels were quantified using RIA. For quantitative RT-PCR, standard procedures were followed.
# TSPO = target: T1, TSPO (Rattus norvegicus, UniProt P16257); experiment: [3H] PK 11195 radioligand displacement from TSPO, rat heart mitochondria; format: binding; conditions: individual regioisomers compared with the mixture
# T1 construct: rat heart mitochondria was isolated and incubated with; tissue CEREP (France); host or cells: rat heart mitochondria
# Method: Binding studies. Radioligand binding studies were conducted by CEREP (France) according to standard procedures as described by LeFur. Briefly, rat heart mitochondria was isolated and incubated with [^3H] PK11195 at 30° C. in the presence of increasing concentrations of EET-me analogues or EET free acids. Reaction mixture was passed through glass wool filters washed 3 times using cold binding buffer and dried by air. Filter were than counted and IC50 values were calculated.
# ICER = ICER expression in spinal cord; format: in vivo, rat; conditions: LPS
# Method: Blood samples for chemical analysis were collected by cardiac puncture under deep isoflurane anesthesia. Plasma was immediately separated by centrifuging at 4000 rpm for 10 minutes in a cold centrifuge. Rats were then decapitated under anesthesia and tissues were removed and flash frozen in liquid nitrogen. For sampling the brain after decapitation, the scalp was first removed providing accessibility to the cranial plates. A midline incision was introduced to detach the cranial plates and brain was carefully exposed by peeling the plates. The brain was removed from the skull using a spatula, immediately placed in liquid nitrogen, and stored at −80° C. The prefrontal area was removed by a coronal cut to the distal one third of the brain from the frozen tissue. The cerebellum was also removed and the brain was hemisected. Saggital slices with a thickness of 2 mm and weighing 100-200 mg were cut from both hemispheres lateral to the thalamus and stored to be used for qRT-PCR or chemical analysis. Plasma hormone levels were quantified using RIA. For quantitative RT-PCR, standard procedures were followed.
# [2] = tested on: streptozocin induced neuropathic pain; experiment: mechanical hyperalgesia test (Randal-Selitto) in streptozocin neuropathic rats; format: in vivo, rat
# Method: Male Sprague-Dawley rats weighing 250-300 grains were used. Animals were individually housed at UC Davis Animal Resource Facility under standard conditions with free access to food and water, and maintained for at least 1 week before the experiments. Pain was quantified using three tests, the hind paw withdrawal latency test, the mechanical hyperalgesia test and the mechanical allodynia test. All the experiments were performed during the daytime. Rats were first trained to the experimental chamber in two separate sessions. On the day of the induction of neuropathy, the animals' basal response to all three tests were measured and then streptozocin (50 mg/kg) was administered intravenously. Animals were then followed over time for the development of neuropathic pain. An inhibitor of sEH was administered subcutaneously one week after the onset of pain symptoms. […] Pain response was measured at 60, 120, 240 and 480 minutes after the administration of the sEHI. Compounds were formulated by dissolving them in ethanol and mixing with trans free oleic oil. At least six animals per group were used. The Von Frey test was conducted by stimulating the plantar surface of the rats' hind paw with a calibrated filament connected to a force transducer. As this filament is applied the amount of force exerted on the paw increases and the animal withdraws its paw when the force reaches its threshold. […] In the Randal-Selitto test a similar principle is used. The animals' hind paw is placed between a flat surface and a pointed tip of a force transducer. The pointed tip exerts force on the dorsal face of the paw. […] The two tests are complementary, but depend on the activity of different groups of nociceptors.
structure (smiles),measurement,setting,value
"O=C(NC12CC3CC(CC(C3)C1)C2)N[C@H]1CC[C@H](Oc2ccc(C(=O)O)cc2)CC1 (relative stereo) [t-AUCB, trans-4-[4-(3-adamantan-1-yl-ureido)-cyclohexyloxy]-benzoic acid]","neuropathic pain, von Frey test",[1],reduced and at higher doses eliminated
CC(=O)N1CCC(NC(=O)Nc2ccc(OC(F)(F)F)cc2)CC1 [TPAU],analgesic potency compared with morphine,LPS induced hyperalgesia; 10 mg/kg vs morphine 1 mg/kg,potency strikingly comparable to that of a moderate dose of morphine
same,inflammatory pain related behavior,LPS induced hyperalgesia,particularly more effective; also recorded: substantially reduced hyperalgesia
same,"response to stimuli, motor activity",LPS induced hyperalgesia; treated animals,no reduction in response to stimuli or gross signs of loss of motor activity
same,spinal COX-2 mRNA increase,COX-2 mRNA,particularly more effective
same,"neuropathic pain, von Frey test",[1],reduced and at higher doses eliminated
"Nc1ncnc2c1nc(Br)n2[C@@H]1O[C@@H]2COP(=O)(O)O[C@H]2[C@H]1O [8-Br cAMP, reference compound]",StAR expression in spinal cord and brain,StAR mRNA,did not change
"CC(C)(C)NC(=O)[C@H]1CC[C@H]2[C@@H]3CC[C@H]4NC(=O)C=C[C@]4(C)[C@H]3CC[C@]12C [finasteride, reference compound]",analgesic activity of AEPU on co-administration,LPS induced hyperalgesia,completely abolished
"CCCCC/C=C\C/C=C\C/C=C\CC1OC1CCCC(=O)OC (centres unmarked) [5,6-EET-me]",activity on TSPO,TSPO,less potent than the mixture were active and more efficacious
"CCOCCOCCOCCCCCNC(=O)NC12CC3CC(CC(C3)C1)C2 [AEPU, Adamantan-1-yl-3-{5-[2-(2-ethoxyethoxy)ethoxy]pentyl}urea]",paw withdrawal latency in response to a mild heat stimulus,"LPS induced hyperalgesia; 50 mg/kg dermally, intraplantar LPS",transiently increased the paw withdrawal latency
same,inflammatory pain related behavior,LPS induced hyperalgesia,had a transient effect on pain however remained analgesic
same,increase in ICER message,ICER,up to 3 fold
same,StAR message in the brain,StAR mRNA; compound alone,neither local inflammation nor AEPU alone elicited an increase
same,StAR message in the brain,StAR mRNA; inflamed animals treated with compound,two fold increase
same,StAR mRNA in the brain,"StAR mRNA; intrathecal with 8-Br cAMP (100 μg), 30 min",elicited a parallel increase in the brain
same,StAR expression in the spinal cord,"StAR mRNA; intrathecal with 8-Br cAMP (100 μg), 30 min, EETs 5 μg, AEPU 1 μg",increased the expression level of StAR in the spinal cord
same,StAR expression in spinal cord and brain,StAR mRNA,did not change
"CCC1(c2ccc(N)cc2)CCC(=O)NC1=O (centres unmarked) [aminoglutethimide, reference compound]",analgesic activity of AEPU on co-administration,LPS induced hyperalgesia,completely abolished
"O=C(O)CCCCCCCCCCCNC(=O)NC12CC3CC(CC(C3)C1)C2 [AUDA, 12-(3-Adamantan-1-yl-ureido)dodecanoic acid]","pain, mechanical hyperalgesia test (FIG. 3)","[2]; 10, 20 and 50 mg/kg",reduced pain in a time and dose dependant
same,mechanical allodynia induced by diabetic neuropathy (FIG. 3 legend),[2]; compound 1010 at equivalent dose,reversed
same,decrease in withdrawal threshold,[1]; moderate dose,completely reversed the decrease in withdrawal threshold
same,pain scores of diabetic rats,[1]; neuropathic pain model,dose and time dependent improvement in pain scores
same,duration of effect,"[1]; rat, in vivo",lost its effect after four hours
same,"neuropathic pain, von Frey test",[1],reduced neuropathic pain in a dose and time dependant manner
"CCCCC/C=C\C/C=C\CC1OC1C/C=C\CCCC(=O)OC (centres unmarked) [8,9-EET-me]",activity on TSPO,TSPO,completely lacked activity
"CCCCCC1OC1C/C=C\C/C=C\C/C=C\CCCC(=O)OC (centres unmarked) [14,15-EET-me]",activity on TSPO,TSPO,less potent than the mixture were active and more efficacious
